In patent US6358885B1, “Substituted phenylheterocyclic herbicides” (Mississippi State University, priority 1992, dated 2002):

Assays:
Assay in all cases: Test B preemergence/postemergence greenhouse plant response rating 0 to 10
Details in all cases: 0 to 10 scale
sugar beet = type: in vivo, Beta vulgaris
Text: (§1) Seeds of barley (Hordeum vulgare), barnyardgrass (Echinochloa crus-galli), bedstraw (Galium aparine), blackgrass (Alopecurus myosuroides), […] (Bromus secalinus), chickweed (Stellaria media), cocklebur (Xanthium pensylvanicum), corn (Zea mays), cotton (Gossypium hirsutum), crabgrass (Digitaria spp.), giant foxtail (Setaria faberii), lambsquarters (Chenopodium album), morningglory (Ipomoea hederacea), rape (Brassica napus), rice (Oryza sativa), sorghum (Sorghum bicolor), soybean (Glycine max), sugar beet (Beta vulgaris), velvetleaf (Abutilon theophrasti), wheat (Triticum aestivum), wild buckwheat (Polygonum convolvulus), and wild oat (Avena fatua) and purple nutsedge. (Cyperus rotundus) tubers were planted and treated preemergence with test chemicals dissolved in a non-phytotoxic solvent. At the same time, these crop and weed species were also treated with postemergence applications of test chemicals. Plants ranged in height from two to eighteen cm (one to four leaf stage) for postemergence treatments. Treated plants and controls were maintained in a greenhouse for twelve to sixteen days, after which all species were compared to controls and visually evaluated. […] A dash (-) response means no test result.

wheat = type: in vivo, Triticum aestivum
Text: as §1

wild oat = type: in vivo, Avena fatua
Text: as §1

cheatgrass = type: in vivo, Bromus secalinus
Text: as §1

barley = type: in vivo, Hordeum vulgare
Text: as §1

wild buckwheat = type: in vivo, Polygonum convolvulus
Text: as §1

lambsquarters = type: in vivo, Chenopodium album
Text: as §1

chickweed = type: in vivo, Stellaria media
Text: as §1

blackgrass = type: in vivo, Alopecurus myosuroides
Text: as §1

bedstraw = type: in vivo, Galium aparine
Text: as §1

rape = type: in vivo, Brassica napus
Text: as §1

Fc1cc(Cl)c(-c2ccccc2)cc1-c1nn2c(c1Cl)CCCC2 [Compound 46]
10: Plant response rating, Sugar beet (sugar beet; POSTEMERGENCE, Rate 50 g/ha) | Plant response rating, Wild buckwheat (wild buckwheat; Rate 200 g/ha, POSTEMERGENCE) | Plant response rating, Lambsquarter (lambsquarters; Rate 200 g/ha, POSTEMERGENCE)
2: Plant response rating, Wheat (wheat; POSTEMERGENCE, Rate 50 g/ha) | Plant response rating, Wild oat (wild oat; POSTEMERGENCE, Rate 50 g/ha) | Plant response rating, Wild oat (wild oat; Rate 200 g/ha, POSTEMERGENCE) | Plant response rating, Barley (barley; POSTEMERGENCE, Rate 50 g/ha) | Plant response rating, Chickweed (chickweed; Rate 200 g/ha, PREEMERGENCE) | Plant response rating, Blackgrass (blackgrass; POSTEMERGENCE, Rate 50 g/ha) | Plant response rating, Bedstraw (bedstraw; Rate 200 g/ha, PREEMERGENCE)
0: Plant response rating, Sugar beet (sugar beet; PREEMERGENCE, Rate 50 g/ha) | Plant response rating, Wheat (wheat; PREEMERGENCE, Rate 50 g/ha) | Plant response rating, Wheat (wheat; Rate 200 g/ha, PREEMERGENCE) | Plant response rating, Wild oat (wild oat; PREEMERGENCE, Rate 50 g/ha) | Plant response rating, Cheatgrass (cheatgrass; PREEMERGENCE, Rate 50 g/ha) | Plant response rating, Cheatgrass (cheatgrass; Rate 200 g/ha, PREEMERGENCE) | Plant response rating, Barley (barley; PREEMERGENCE, Rate 50 g/ha) | Plant response rating, Barley (barley; Rate 200 g/ha, PREEMERGENCE) | Plant response rating, Wild buckwheat (wild buckwheat; PREEMERGENCE, Rate 50 g/ha) | Plant response rating, Lambsquarter (lambsquarters; PREEMERGENCE, Rate 50 g/ha) | Plant response rating, Chickweed (chickweed; PREEMERGENCE, Rate 50 g/ha) | Plant response rating, Blackgrass (blackgrass; PREEMERGENCE, Rate 50 g/ha) | Plant response rating, Blackgrass (blackgrass; Rate 200 g/ha, PREEMERGENCE) | Plant response rating, Bedstraw (bedstraw; PREEMERGENCE, Rate 50 g/ha) | Plant response rating, Rape (rape; PREEMERGENCE, Rate 50 g/ha) | Plant response rating, Rape (rape; Rate 200 g/ha, PREEMERGENCE)
6: Plant response rating, Wild buckwheat (wild buckwheat; POSTEMERGENCE, Rate 50 g/ha) | Plant response rating, Bedstraw (bedstraw; POSTEMERGENCE, Rate 50 g/ha)
3: Plant response rating, Wheat (wheat; Rate 200 g/ha, POSTEMERGENCE) | Plant response rating, Cheatgrass (cheatgrass; POSTEMERGENCE, Rate 50 g/ha) | Plant response rating, Barley (barley; POSTEMERGENCE, Rate 200 g/ha) | Plant response rating, Chickweed (chickweed; POSTEMERGENCE, Rate 50 g/ha) | Plant response rating, Chickweed (chickweed; POSTEMERGENCE, Rate 200 g/ha) | Plant response rating, Blackgrass (blackgrass; POSTEMERGENCE, Rate 200 g/ha)
4: Plant response rating, Cheatgrass (cheatgrass; POSTEMERGENCE, Rate 200 g/ha) | Plant response rating, Wild buckwheat (wild buckwheat; Rate 200 g/ha, PREEMERGENCE) | Plant response rating, Rape (rape; POSTEMERGENCE, Rate 50 g/ha) | Plant response rating, Rape (rape; Rate 200 g/ha, POSTEMERGENCE)
7: Plant response rating, Sugar beet (sugar beet; Rate 200 g/ha, PREEMERGENCE)
9: Plant response rating, Sugar beet (sugar beet; Rate 200 g/ha, POSTEMERGENCE) | Plant response rating, Lambsquarter (lambsquarters; POSTEMERGENCE, Rate 50 g/ha) | Plant response rating, Lambsquarter (lambsquarters; Rate 200 g/ha, PREEMERGENCE)
8: Plant response rating, Bedstraw (bedstraw; POSTEMERGENCE, Rate 200 g/ha)
